Source: patent US12599136B2, “Substituted isophthalic acid diamides and their use as herbicides” (Bayer Aktiengesellschaft, priority 2020, dated 2026)

Key:
Assay type in all cases: in vivo
Amaranthus retroflexus [1] = experiment: Post-emergence herbicidal action against AMARE; settings: visual assessment about 3 weeks after treatment
Procedure, shortened: (§1)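 Greenhouse pot plants in sandy loam were sprayed at the one-leaf stage, 2 to 3 weeks after sowing, with WP or EC formulations as aqueous suspension or emulsion (600 to 800 l/ha water, 0.2% wetting agent). About 3 weeks later, damage was scored visually against untreated controls as % action (100% = dead, 0% = like control).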

Echinochloa crus-galli [2] = experiment: Pre-emergence herbicidal action against ECHCG; settings: visual score after 3 weeks vs untreated controls
Procedure, shortened: (§2)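 Visual rating at 3 weeks vs untreated pots; 0–100% scale, 100% = plants died. Treatment: aqueous WP/EC spray onto covering soil, 600–800 l/ha, 0.2% wetter, seeds in sandy loam.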

Setaria viridis [3] = experiment: Pre-emergence herbicidal action against SETVI
Procedure, shortened: as §2

Veronica persica [4] = experiment: Pre-emergence herbicidal action against VERPE; settings: 320 g/ha
Procedure, shortened: as §2

Echinochloa crus-galli [5] = experiment: Post-emergence herbicidal action against ECHCG; settings: visual assessment about 3 weeks after treatment
Procedure, shortened: as §1

Alopecurus myosuroides [6] = experiment: Pre-emergence herbicidal action against ALOMY; settings: visual score after 3 weeks vs untreated controls
Procedure, shortened: as §2

Amaranthus retroflexus [7] = experiment: Pre-emergence herbicidal action against AMARE; settings: visual score after 3 weeks vs untreated controls
Procedure, shortened: as §2

Viola tricolor [8] = experiment: Pre-emergence herbicidal action against VIOTR
Procedure, shortened: as §2

Alopecurus myosuroides [9] = experiment: Post-emergence herbicidal action against ALOMY
Procedure, shortened: as §1

Lolium rigidum [10] = experiment: Post-emergence herbicidal action against LOLRI
Procedure, shortened: as §1

Polygonum convolvulus [11] = experiment: Post-emergence herbicidal action against POLCO; settings: 80 g/ha, visual assessment about 3 weeks after treatment
Procedure, shortened: as §1

Viola tricolor [12] = experiment: Post-emergence herbicidal action against VIOTR
Procedure, shortened: as §1

Pharbitis purpurea [13] = experiment: Pre-emergence herbicidal action against PHBPU; settings: visual score after 3 weeks vs untreated controls
Procedure, shortened: as §2

Matricaria inodora [14] = experiment: Post-emergence herbicidal action against MATIN; settings: visual assessment about 3 weeks after treatment
Procedure, shortened: as §1

Stellaria media [15] = experiment: Pre-emergence herbicidal action against STEME
Procedure, shortened: as §2

Lolium rigidum [16] = experiment: Pre-emergence herbicidal action against LOLRI; settings: 320 g/ha
Procedure, shortened: as §2

Abutilon theophrasti [17] = experiment: Pre-emergence herbicidal action against ABUTH; settings: visual score after 3 weeks vs untreated controls
Procedure, shortened: as §2

Cyperus esculentus [18] = experiment: Pre-emergence herbicidal action against CYPES; settings: visual score after 3 weeks vs untreated controls
Procedure, shortened: as §2

Abutilon theophrasti [19] = experiment: Post-emergence herbicidal action against ABUTH
Procedure, shortened: as §1

Cyperus esculentus [20] = experiment: Post-emergence herbicidal action against CYPES; settings: 80 g/ha, visual assessment about 3 weeks after treatment
Procedure, shortened: as §1

Avena fatua [21] = experiment: Pre-emergence herbicidal action against AVEFA; settings: visual score after 3 weeks vs untreated controls
Procedure, shortened: as §2

Avena fatua [22] = experiment: Post-emergence herbicidal action against AVEFA; settings: visual assessment about 3 weeks after treatment
Procedure, shortened: as §1

Hordeum murinum [23] = experiment: Post-emergence herbicidal action against HORMU
Procedure, shortened: as §1

Setaria viridis [24] = experiment: Post-emergence herbicidal action against SETVI; settings: visual assessment about 3 weeks after treatment
Procedure, shortened: as §1

Matricaria inodora [25] = experiment: Pre-emergence herbicidal action against MATIN; settings: visual score after 3 weeks vs untreated controls
Procedure, shortened: as §2

Pharbitis purpurea [26] = experiment: Post-emergence herbicidal action against PHBPU; settings: visual assessment about 3 weeks after treatment
Procedure, shortened: as §1

Polygonum convolvulus [27] = experiment: Pre-emergence herbicidal action against POLCO; settings: 320 g/ha
Procedure, shortened: as §2

Stellaria media [28] = experiment: Post-emergence herbicidal action against STEME; settings: visual assessment about 3 weeks after treatment
Procedure, shortened: as §1

Veronica persica [29] = experiment: Post-emergence herbicidal action against VERPE; settings: 80 g/ha, visual assessment about 3 weeks after treatment
Procedure, shortened: as §1

Hordeum murinum [30] = experiment: Pre-emergence herbicidal action against HORMU; settings: visual score after 3 weeks vs untreated controls
Procedure, shortened: as §2

## CCN(C)C(=O)c1c(C(F)(F)F)ccc(C(=O)Nc2nnnn2CC)c1Cl [Example 2-124]
Amaranthus retroflexus [1]; 5 g/ha
  Post-emergence action against AMARE in %: 100%
Amaranthus retroflexus [1]; 20 g/ha
  Post-emergence action against AMARE in %: 100%
Amaranthus retroflexus [1]; 80 g/ha
  Post-emergence action against AMARE in %: 100%
Echinochloa crus-galli [2]; 80 g/ha
  Pre-emergence action against ECHCG: 90%
Echinochloa crus-galli [2]; 320 g/ha
  Pre-emergence action against ECHCG: 100%
Setaria viridis [3]; 20 g/ha
  Pre-emergence action against SETVI: 90%
Setaria viridis [3]; 80 g/ha
  Pre-emergence action against SETVI: 100%
Setaria viridis [3]; 320 g/ha
  Pre-emergence action against SETVI: 100%
Veronica persica [4]
  Pre-emergence action against VERPE: 100%
Echinochloa crus-galli [5]; 20 g/ha
  Post-emergence action against ECHCG in %: 100%
Echinochloa crus-galli [5]; 80 g/ha
  Post-emergence action against ECHCG in %: 100%
Alopecurus myosuroides [6]; 80 g/ha
  Pre-emergence action against ALOMY: 80%
Alopecurus myosuroides [6]; 320 g/ha
  Pre-emergence action against ALOMY: 90%
Amaranthus retroflexus [7]; 20 g/ha
  Pre-emergence action against AMARE: 90%
Amaranthus retroflexus [7]; 80 g/ha
  Pre-emergence action against AMARE: 100%
Amaranthus retroflexus [7]; 320 g/ha
  Pre-emergence action against AMARE: 100%
Viola tricolor [8]; 20 g/ha
  Pre-emergence action against VIOTR: 80%
Viola tricolor [8]; 80 g/ha
  Pre-emergence action against VIOTR: 80%
Viola tricolor [8]; 320 g/ha
  Pre-emergence action against VIOTR: 100%
Alopecurus myosuroides [9]; 5 g/ha
  Post-emergence action against ALOMY: 90%
Alopecurus myosuroides [9]; 20 g/ha
  Post-emergence action against ALOMY: 100%
Alopecurus myosuroides [9]; 80 g/ha
  Post-emergence action against ALOMY: 100%
Lolium rigidum [10]; 20 g/ha
  Post-emergence action against LOLRI in %: 90%
Lolium rigidum [10]; 80 g/ha
  Post-emergence action against LOLRI in %: 100%
Polygonum convolvulus [11]
  Post-emergence action against POLCO in %: 100%
Viola tricolor [12]; 5 g/ha
  Post-emergence action against VIOTR in %: 100%
Viola tricolor [12]; 20 g/ha
  Post-emergence action against VIOTR in %: 100%
Viola tricolor [12]; 80 g/ha
  Post-emergence action against VIOTR in %: 100%
Pharbitis purpurea [13]; 80 g/ha
  Pre-emergence action against PHBPU: 80%
Pharbitis purpurea [13]; 320 g/ha
  Pre-emergence action against PHBPU: 90%
Matricaria inodora [14]; 5 g/ha
  Post-emergence action against MATIN in %: 90%
Matricaria inodora [14]; 20 g/ha
  Post-emergence action against MATIN in %: 100%
Matricaria inodora [14]; 80 g/ha
  Post-emergence action against MATIN in %: 100%
Stellaria media [15]; 20 g/ha
  Pre-emergence action against STEME: 90%
Stellaria media [15]; 80 g/ha
  Pre-emergence action against STEME: 90%
Stellaria media [15]; 320 g/ha
  Pre-emergence action against STEME: 90%
Lolium rigidum [16]
  Pre-emergence action against LOLRI: 90%
Abutilon theophrasti [17]; 20 g/ha
  Pre-emergence action against ABUTH: 100%
Abutilon theophrasti [17]; 80 g/ha
  Pre-emergence action against ABUTH: 100%
Abutilon theophrasti [17]; Dosage column 320 g/ha (heading prints 3200 g/ha)
  Pre-emergence action against ABUTH: 100%
Cyperus esculentus [18]; 20 g/ha
  Pre-emergence action against CYPES: 100%
Cyperus esculentus [18]; 80 g/ha
  Pre-emergence action against CYPES: 100%
Cyperus esculentus [18]; 320 g/ha
  Pre-emergence action against CYPES: 100%
Abutilon theophrasti [19]; 5 g/ha
  Post-emergence action against ABUTH: 100%
Abutilon theophrasti [19]; 20 g/ha
  Post-emergence action against ABUTH: 100%
Abutilon theophrasti [19]; 80 g/ha
  Post-emergence action against ABUTH: 100%
Cyperus esculentus [20]
  Post-emergence action against CYPES in %: 90%
Avena fatua [21]; 80 g/ha
  Pre-emergence action against AVEFA: 90%
Avena fatua [21]; 320 g/ha
  Pre-emergence action against AVEFA: 100%
Avena fatua [22]; 5 g/ha
  Post-emergence action against AVEFA in %: 80%
Avena fatua [22]; 20 g/ha
  Post-emergence action against AVEFA in %: 100%
Avena fatua [22]; 80 g/ha
  Post-emergence action against AVEFA in %: 100%
Hordeum murinum [23]; 20 g/ha
  Post-emergence action against HORMU in %: 90%
Hordeum murinum [23]; 80 g/ha
  Post-emergence action against HORMU in %: 100%
Setaria viridis [24]; 5 g/ha
  Post-emergence action against SETVI in %: 100%
Setaria viridis [24]; 20 g/ha
  Post-emergence action against SETVI in %: 100%
Setaria viridis [24]; 80 g/ha
  Post-emergence action against SETVI in %: 100%
Matricaria inodora [25]; 20 g/ha
  Pre-emergence action against MATIN: 80%
Matricaria inodora [25]; 80 g/ha
  Pre-emergence action against MATIN: 90%
Matricaria inodora [25]; 320 g/ha
  Pre-emergence action against MATIN: 100%
Pharbitis purpurea [26]; 5 g/ha
  Post-emergence action against PHBPU in %: 80%
Pharbitis purpurea [26]; 20 g/ha
  Post-emergence action against PHBPU in %: 90%
Pharbitis purpurea [26]; 80 g/ha
  Post-emergence action against PHBPU in %: 90%
Polygonum convolvulus [27]
  Pre-emergence action against POLCO: 80%
Stellaria media [28]; 5 g/ha
  Post-emergence action against STEME in %: 100%
Stellaria media [28]; 20 g/ha
  Post-emergence action against STEME in %: 100%
Stellaria media [28]; 80 g/ha
  Post-emergence action against STEME in %: 100%
Veronica persica [29]
  Post-emergence action against VERPE in %: 100%
Hordeum murinum [30]; 80 g/ha
  Pre-emergence action against HORMU: 80%
Hordeum murinum [30]; 320 g/ha
  Pre-emergence action against HORMU: 90%
